# Results: patent US9669003B2, “Use of flavone and flavanone derivatives in preparation of sedative and hypnotic drugs” (priority 2012, dated 2017)
# Marks after values point to notes of the source that are not given here.
# How the values were obtained:
# Type in all cases: in vivo
# Kunming mice [1] = assay: Influence on hypnosis effect with pentobarbital sodium doses at the threshold (50 mg/kg i.p.); conditions: pentobarbital sodium 50 mg/kg i.p. 60 min later, x ± s, n = 10
# Excerpt: (§1) 1.1 Animals for experiments: Kunming mice, weighting 18.9˜22.2 g for females, and 20.2˜23.0 g for males, licensed under SCXK-(Ji) 2007-0003, and provided by The experimental animal centre, Jilin University.
# (§2) 1.2 Chemicals for experiments: The flavone derivatives provided in Examples 1-41 and the flavanone derivatives provided in Examples 42-71 are all formulated with 0.5% sodium carboxymethyl cellulose as solutions with required concentrations.
# (§3) 1.3 Grouping of animals: 6420 animals are employed in the entire experiments and 2140 of the animals are randomly divided into 214 groups by gender, and the […] include: control group, low dosage group for each experimental drugs (25 mg/kg), medium dosage group for each experimental drugs (50 mg/kg), and high dosage group for each experimental drugs (100 mg/kg). Each group has 10 animals and either female or male constitutes half of the group. The groups are used in behavior observation and voluntary action observation. The other 4280 animals are randomly divided into 214 groups by gender respectively (the grouping way is the same with that described above). Each group has 20 animals and either female or male constitutes half of the group. In each group, 10 animals are used in hypnosis experimentations with pentobarbital sodium doses below the threshold, and the other 10 animals are used hypnosis experimentations with pentobarbital sodium doses at the threshold.
# 1.5.4 Influence on Hypnosis Effect with Mice Pentobarbital Sodium Doses at the Threshold
# (§4) The drug is intragastric administered in mice for single time, 2 animals of each group are given drug per round with the dosing interval of 40 min (±5 min). According to the administration round, in 60 min (±5 min) of each round after the drug administration, the animals were intraperitoneally injected 0.3% sodium pentobarbital 50 mg/kg, respectively. Time to fall asleep (sleep latency) and sleep duration of the animals were recorded within under sleep determination standard of loss of righting reflex more than 1 min.
# (§5) Number of autonomic activities is detected by leneve Test for homogeneity of variance. If the homogeneity of variance is good (P>0.05), statistical analysis is performed with ANOVA. If ANOVA have statistical significance (P≦0.05), Dunnett's test for multiple comparisons analysis is performed. Number of animals of sleeping mice is applied of ANOVA. Incidence rate of animal asleep is applied of χ2 test. Sleep latency and sleep duration are recorded in min, averaged by group, represented by standard deviation, and undergo statistical analysis using ANOVA.
# Kunming mice [2] = assay: Influence on hypnosis effect with pentobarbital sodium doses below the threshold (25 mg/kg i.p.); conditions: pentobarbital sodium 25 mg/kg i.p. 60 min later, sleep observed in 30 min, n = 10
# Excerpt: as §1, §2, §3
# 1.5.3 Influence on Hypnosis Effect with Mice Pentobarbital Sodium Doses Below the Threshold
# as §4, with “25” for “50”, “Sleep condition” for “Time to fall asleep (sleep latency) and sleep duration”, “observed” for “recorded”, “30 min (under” for “under”, “min). After animals undergo loss of righting reflex, number of the animals is recorded, to calculate sleep percentage.” for “min.”
# as §5
# Kunming mice [3] = assay: Influence on autonomic activity of normal mice (ZIL-2 mice autonomic activity meter, counts within 10 min); conditions: intragastric, x ± s, n = 10; for Times of activities in 1 h after drug administration/10 min: 1 h after administration; for Times of activities in 2 h after drug administration/10 min: 2 h after administration; for Times of activities in 24 h after drug administration/10 min: 24 h after administration
# Excerpt: as §1, §2, §3
# 1.4 Experimental instrument and agents: ZIL-2 mice autonomic activity meter, production of Institute of Materia Medica of Chinese Academy of Medical Sciences; pentobarbital sodium, Lot: 100808, 25 g/bottle, Beijing Chemical Reagent Company equipment imported from Germany.
# 1.5.2 Influence on Autonomic Activity of Normal Mice
# After observing the general behavior, in 1 h, 2 h and 24 h after drug administration, respectively, ZIL-2 mice autonomic activity meter is put respectively. Number of autonomic activities of each group of mice is measured within 10 min. Results among groups are compared.
# as §5
# [4] = 25 mg/kg intragastric single dose
# [5] = 50 mg/kg intragastric single dose
# [6] = 100 mg/kg intragastric single dose
# [7] = test drug 25 mg/kg intragastric single dose
# [8] = test drug 50 mg/kg intragastric single dose
# [9] = test drug 100 mg/kg intragastric single dose
Compound,duration of sleep (Kunming mice [1]; [4]) [min],time to sleep (Kunming mice [1]; [4]) [min],duration of sleep (Kunming mice [1]; [5]) [min],time to sleep (Kunming mice [1]; [5]) [min],duration of sleep (Kunming mice [1]; [6]) [min],time to sleep (Kunming mice [1]; [6]) [min],Number of sleeping animals (Kunming mice [2]; [7]),rate of sleeping (%) (Kunming mice [2]; [7]),Number of sleeping animals (Kunming mice [2]; [8]),rate of sleeping (%) (Kunming mice [2]; [8]),Number of sleeping animals (Kunming mice [2]; [9]),rate of sleeping (%) (Kunming mice [2]; [9]),Times of activities in 1 h after drug administration/10 min (Kunming mice [3]; 25 mg/kg),Times of activities in 2 h after drug administration/10 min (Kunming mice [3]; 25 mg/kg),Times of activities in 24 h after drug administration/10 min (Kunming mice [3]; 25 mg/kg),Times of activities in 1 h after drug administration/10 min (Kunming mice [3]; 50 mg/kg),Times of activities in 2 h after drug administration/10 min (Kunming mice [3]; 50 mg/kg),Times of activities in 24 h after drug administration/10 min (Kunming mice [3]; 50 mg/kg),Times of activities in 1 h after drug administration/10 min (Kunming mice [3]; 100 mg/kg),Times of activities in 2 h after drug administration/10 min (Kunming mice [3]; 100 mg/kg),other results
"COc1ccc(-c2cc(=O)c3c(O)cc(OC)c(OC)c3o2)c(OC)c1OC [Example 9, 5-hydroxyl-7,8,2′,3′,4′-penta methoxyl-flavone]",49.14 ± 16.71,3.31 ± 1.81,72.31 ± 21.42,2.91 ± 1.52,85.16 ± 21.97,2.12 ± 1.12,6,60** %,7,70** %,8,80*** %,258.4 ± 60.2 /10 min,241.1 ± 34.1 /10 min,314.2 ± 67.9 /10 min,183.5 ± 45.9 /10 min,194.3 ± 45.1 /10 min,317.2 ± 80.9 /10 min,129.0 ± 40.2 /10 min,126.3 ± 39.8 /10 min,Times of activities in 24 h after drug administration/10 min (Kunming mice [3]; 100 mg/kg): 323.5 ± 62.4 /10 min
"COc1ccc(-c2cc(=O)c3c(OC)c(OC)c(OC)cc3o2)cc1OC [Example 10, 5,6,7,3′,4′-penta methoxyl-flavone]",31.72 ± 21.73,5.42 ± 1.58,39.41 ± 21.74,3.90 ± 1.34,59.21 ± 22.41,3.81 ± 1.63,2,20%,5,50** %,6,60** %,289.3 ± 50.1 /10 min,275.6 ± 44.1 /10 min,315.6 ± 76.3 /10 min,257.2 ± 61.3 /10 min,260.1 ± 58.2 /10 min,325.3 ± 80.2 /10 min,131.2 ± 30.8 /10 min,231.6 ± 44.2 /10 min,Times of activities in 24 h after drug administration/10 min (Kunming mice [3]; 100 mg/kg): 304.1 ± 82.5 /10 min
"COc1ccc(-c2cc(=O)c3c(O)c(OC)c(OC)c(OC)c3o2)cc1OC [Example 11, 5-hydroxyl-6,7,8,3′,4′-penta methoxyl-flavone]",47.25 ± 14.42,3.42 ± 1.37,63.75 ± 20.27,3.13 ± 1.21,78.54 ± 19.27,2.13 ± 1.33,5,50** %,6,60** %,8,80*** %,243.1 ± 53.5 /10 min,237.3 ± 45.3 /10 min,291.7 ± 72.5 /10 min,187.2 ± 41.4 /10 min,179.7 ± 46.0 /10 min,287.8 ± 89.1 /10 min,115.9 ± 48.5 /10 min,126.7 ± 48.7 /10 min,Times of activities in 24 h after drug administration/10 min (Kunming mice [3]; 100 mg/kg): 315.2 ± 75.4 /10 min
"COc1ccc(O)cc1-c1cc(=O)c2c(O)cc(OC)c(OC)c2o1 [Example 12, 5,5′-dihydroxyl-7,8,2′-trimethoxyl-flavone]",22.71 ± 26.17,5.43 ± 2.05,28.68 ± 27.56,5.01 ± 2.00,38.55 ± 23.27,4.25 ± 1.16,5,50** %,8,80*** %,8,80*** %,255.9 ± 39.8 /10 min,284.2 ± 41.7 /10 min,303.1 ± 69.1 /10 min,179.5 ± 51.4 /10 min,168.5 ± 54.3 /10 min,317.9 ± 55.3 /10 min,153.7 ± 48.4 /10 min,135.9 ± 48.7 /10 min,Times of activities in 24 h after drug administration/10 min (Kunming mice [3]; 100 mg/kg): 302.1 ± 89.0 /10 min
